Values joined by “and” are separate entries in the source; they are usually repeats but may differ in a detail not shown here. Equal values may be shown once.
Legend:
bean leaf (Vicia faba) = experiment: Uptake (stomatal infiltration) of ^14C-glyphosate isopropylamine salt into bean leaf; type: in vivo
Procedure: The impact of the TSA-1/TSA-2 blends on the uptake of ^14C-glyphosate (herbicide) solutions into bean leaf (Vicia fava) was determined at 10 minutes after application, according to the method described by Stevens et al., Contributions of stomatal infiltration and cuticular penetration to enhancements of foliar uptake by surfactants. […]. Sci., 33, 371-382, to establish the contribution of trisiloxane alkoxylate (TSA) surfactants on the speed of uptake, via stomatal infiltration). Here glyphosate solutions containing 0.4% TSA surfactant was applied to bean leaf using a micro-syringe. At 10 minutes after application, the leaf was washed with aqueous ethanol and uptake was determined by subtraction, using a scintillation counter to measure residual ^14C-glyphosate-IPA salt (Stevens et al. […]. Sci., 33, 371-382). The uptake by stomatal infiltration of ^14C-glyphosate-isopropyl amine salt into bean-leaf (Vicia faba) at 10 minutes after application was determined as outlined in Example 4.

[1] = Dynamic surface tension (Kruss Maximum Bubble Pressure tensiometer); type: physicochemical; settings: 0.4 wt % in deionized water
Procedure: Dynamic surface tension (DST) was measured using a Kruss Maximum Bubble Pressure tensiometer. TSA solutions were prepared at 0.4 wt % in deionized water, further purified with a Milli-Q ultrapure filtration system (Millipore Corp.). The data for surface tension vs time (milliseconds) was plotted and then the surface tension was calculated from a trend line to generate surface tension data at 75, 100, 150 and 200 milliseconds (mSec).

- Dynamic Surface Tension, IFDT 75 mSec ([1]; calculated from trend line at 75 mSec): 49.5 mN/m
- Dynamic Surface Tension, IFDT 100 mSec ([1]; calculated from trend line at 100 mSec): 47.6 mN/m
- Dynamic Surface Tension, IFDT 150 mSec ([1]; calculated from trend line at 150 mSec): 43.9 mN/m
- Dynamic Surface Tension, IFDT 200 mSec ([1]; calculated from trend line at 200 mSec): 40.1 mN/m
SMILES: C[Si](C)(C)O[Si](C)(CCCOCCOCCOCCOCCOCCOCCOCCOCCO)O[Si](C)(C)C [TSA-1-B]
- Uptake (%) Observed (bean leaf (Vicia faba); ^14C-glyphosate into bean, 0.4% TSA adjuvant, 10 minutes after application): 79.3 ab % and 90.2 a % and 88.0 ab % and 85.9 a %
- Uptake (%) Predicted (bean leaf (Vicia faba); weighted average of the components, 0.4% adjuvant, 10 minutes): 79.3% and 90.2% and 88.0% and 85.9%

— patent publication US20210029991A1, “TRISILOXANE ALKOXYLATE COMPOSITIONS” (Momentive Performance Materials Inc., priority 2018, published 2021)
